Data reported in patent publication US20250099448A1, “HETEROCYCLIC COMPOUNDS” (Hoffmann-La Roche Inc., priority 2022, published 2025).
pIC50: −log10 of the molar value.

molecular target: T1, MAGL protein (Homo sapiens, UniProt Q99685); assay: 2-AG assay: MAGL inhibitory activity by hydrolysis of 2-arachidonoylglycerol to arachidonic acid, followed by mass spectrometry; type: biochemical; settings: 8 μM 2-arachidonoylglycerol, 15 min preincubation, 30 min reaction at RT, RapidFire MS readout
T1 sequence (Q99685 1-303): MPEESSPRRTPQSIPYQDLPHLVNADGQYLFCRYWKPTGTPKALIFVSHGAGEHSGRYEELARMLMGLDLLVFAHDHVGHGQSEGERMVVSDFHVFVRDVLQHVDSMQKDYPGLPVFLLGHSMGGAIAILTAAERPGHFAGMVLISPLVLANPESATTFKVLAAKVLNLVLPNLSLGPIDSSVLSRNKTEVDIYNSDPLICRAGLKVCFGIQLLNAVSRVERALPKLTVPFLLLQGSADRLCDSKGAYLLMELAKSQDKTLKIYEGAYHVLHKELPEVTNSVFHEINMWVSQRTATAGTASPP
How it was run: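 MAGL was preincubated 15 min at RT with compound (12.5 to […], 3-fold steps) in 50 mM TRIS, 1 mM EDTA, 0.01% Tween-20, 2.5% DMSO. The reaction ran 30 min at RT with 8 μM 2-AG. Arachidonic acid was quantified by RapidFire SPE-MS/MS against a d8-arachidonic acid internal standard.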

| pIC50 | Structure (SMILES) |
| --- | --- |
| 7.73 | O=C(N1CC2(CCC(Oc3ccc(C(F)(F)F)nn3)CC2)C1)N1CC2(CC(c3nnc(C4CCC4)[nH]3)C2)C1 [compound 52] |
| 8.97 | N#Cc1cc(C(F)(F)F)ncc1CC1CC2(C1)CN(C(=O)N1CC3(CC(c4nnc(C5CC5)[nH]4)C3)C1)C2 [compound 843] |
| 7.43 | O=C(N1CC2(CC(Cc3cncc(C(F)(F)F)c3)C2)C1)N1CC2(CC(c3nc(C4COC4)n[nH]3)C2)C1 [compound 748] |
| 9.77 | O=C(N1CC2(CCC(Cc3ncc(F)cc3F)C2)C1)N1CC2(CC(c3nnc(C4CC4)[nH]3)C2)C1 (single isomer, unassigned) [compound 148] |
| 8.47 | O=C(N1CC(c2ccc(C3(C(F)(F)F)CC3)nc2)C1)N1CC2(CC(c3nnc(C4CC4)[nH]3)C2)C1 [compound 231] |
| 8.41 | O=C(N1CC2(CC(c3nnc(C4CC4)[nH]3)C2)C1)N1CC2(C1)CN(S(=O)(=O)c1ccccc1OC(F)(F)F)C2 [compound 94] |
| 7.70 | O=C(N1CC2(CC(c3nnc(C4CC4)[nH]3)C2)C1)N1CC2(C1)CN(S(=O)(=O)c1cncc(C(F)(F)F)c1)C2 [compound 109] |
| 9.09 | CS(=O)(=O)c1ccc(CC2CC3(C2)CN(C(=O)N2CC4(CC(c5nnc(C6CC6)[nH]5)C4)C2)C3)cc1 [compound 12] |
| 8.88 | CS(=O)(=O)c1cccc(CC2CC3(C2)CN(C(=O)N2CC4(CC(c5nnc(C6CC6)[nH]5)C4)C2)C3)c1 [compound 15] |
| 7.91 | CS(=O)(=O)c1cc(Cl)ccc1CC1CC2(CCN(C(=O)N3CC4(CC(c5nnc(C6CC6)[nH]5)C4)C3)C2)C1 (stereo not shown) [Example 892, [2-(4-chloro-2-mesyl-benzyl)-6-azaspiro[3.4]octan-6-yl]-[6-(5-cyclopropyl-4H-1,2,4-triazol-3-yl)-2-azaspiro[3.3]heptan-2-yl]methanone] |
| 7.55 | O=C(N1CC2(CC(c3nnc(C4(O)CC4)[nH]3)C2)C1)N1CC2(C1)CN(S(=O)(=O)c1ccccc1C(F)(F)F)C2 [compound 97] |
| 6.44 | O=C(N1CC(NS(=O)(=O)c2ccc(C(F)(F)F)cc2F)C1)N1CC2(CC(c3nnc(C4CC4)[nH]3)C2)C1 [compound 203] |
| 9.10 | CS(=N)(=O)c1cc(CC2CC3(C2)CN(C(=O)N2CC4(CC(c5nc(C6CC6)n[nH]5)C4)C2)C3)cc(C(F)(F)F)c1 (stereo not shown) [compound 660] |
| 10.10 | O=C(N1CC(c2ccc(NCC3(C(F)(F)F)CC3)cc2)C1)N1CC2(CC(c3nnc(C4CC4)[nH]3)C2)C1 [compound 257] |
| 7.93 | O=C(N1CC2(CC(c3nnc(C4CC4)[nH]3)C2)C1)N1CC2(CC(S(=O)(=O)c3ccc(F)cc3Cl)C2)C1 [compound 356] |

The next lines start with the compound.

| Structure (SMILES) | pIC50 |
| --- | --- |
| CS(=O)(=O)c1ccccc1C12CC(C3CN(C(=O)N4CC5(CC(c6nc(C7CC7)n[nH]6)C5)C4)C3)(C1)C2 [compound 909] | 9.29 |
| CS(=O)(=O)c1cc(C(F)(F)F)ccc1OCC1CCN(C(=O)N2CC3(CC(c4nc(C5(O)CC5)n[nH]4)C3)C2)CC1 [Example 919, [6-[3-(1-hydroxycyclopropyl)-1H-1,2,4-triazol-5-yl]-2-azaspiro[3.3]heptan-2-yl]-[4-[[2-mesyl-4-(trifluoromethyl)phenoxy]methyl]piperidino]methanone] | 5.92 |
| O=C(N1CC(c2ccc(C3(S(=O)(=O)C(F)(F)F)CC3)cc2)C1)N1CC2(CC(c3nc(C4CC4)n[nH]3)C2)C1 [compound 968] | 10.30 |
| O=C(N1CC2(CC(Cc3cccc(S(=O)(=O)C(F)(F)F)c3)C2)C1)N1CC2(CC(c3nc(C4(F)CC4)n[nH]3)C2)C1 [compound 627] | 10.30 |
| O=C(N1CCC(COc2cc(F)cc(C(F)(F)F)c2)CC1)N1CC2(CC(c3nc(C4(O)CC4)n[nH]3)C2)C1 [Example 921, [4-[[3-fluoro-5-(trifluoromethyl)phenoxy]methyl]piperidino]-[6-[3-(1-hydroxycyclopropyl)-1H-1,2,4-triazol-5-yl]-2-azaspiro[3.3]heptan-2-yl]methanone] | 7.50 |
| CNc1ccc(C(=O)N2CCN(C(=O)N3CC4(CC(c5nnc(C6CC6)[nH]5)C4)C3)CC2)cc1 [Example 871, [4-[6-(5-cyclopropyl-4H-1,2,4-triazol-3-yl)-2-azaspiro[3.3]heptane-2-carbonyl]piperazino]-[4-(methylamino)phenyl]methanone] | 6.47 |
| O=C(N1CC2(CC(Cc3ncc(C(F)(F)F)cc3F)C2)C1)N1CC2(CC(c3nc(C4CC(F)(F)C4)n[nH]3)C2)C1 [compound 508] | 8.18 |
| O=C(N1CC2(CC(Cn3ccc(C(F)(F)F)n3)C2)C1)N1CC2(CC(c3nc(C4(O)CC4)n[nH]3)C2)C1 [compound 673] | 8.70 |
| N#Cc1cc(CC2CC3(C2)CN(C(=O)N2CC4(CC(c5nnc(C6(O)CC6)[nH]5)C4)C2)C3)cnc1C(F)(F)F [compound 606] | 8.29 |
| N#Cc1cc(C(F)(F)F)ncc1CC1CC2(C1)CN(C(=O)N1CC3(CC(c4nnc(C5(O)CC5)[nH]4)C3)C1)C2 [compound 433] | 9.05 |
| O=C(N1CC2(CC(Cc3n[nH]c(C(F)(F)F)n3)C2)C1)N1CC2(CC(c3nc(C4CC4)n[nH]3)C2)C1 [compound 494] | 8.43 |
| Cn1cc(C(F)(F)F)c(CC2CC3(C2)CN(C(=O)N2CC4(CC(c5nc(C6CC6)n[nH]5)C4)C2)C3)n1 [compound 479] | 9.74 |
| N#Cc1cc(CC2CC3(C2)CN(C(=O)N2CC4(CC(c5nc(C6(F)CC6)n[nH]5)C4)C2)C3)ccc1C(F)(F)F [compound 585] | 10.22 |
| O=C(N1CC2(CC(Cc3ccc(C(F)(F)F)nc3)C2)C1)N1CC2(CC(c3nnc(C4(O)CC4)[nH]3)C2)C1 [compound 6] | 8.94 |
| O=C(N1CC(C23CC(c4cccc(OC(F)(F)F)c4)(C2)C3)C1)N1CC2(CC(c3nc(C4CC4)n[nH]3)C2)C1 [compound 459] | 10.70 |
| O=C(N1CC(OCC2CC3C(C2)C3(F)F)C1)N1CC2(CC(c3nnc(C4CC4)[nH]3)C2)C1 (stereo not shown) [compound 327] | 7.60 |
| NC(=O)c1ccccc1-c1ccc(C2CN(C(=O)N3CC4(CC(c5nnc(C6CC6)[nH]5)C4)C3)C2)cc1 [compound 340] | 8.96 |
| CS(=O)(=O)c1ccc(C23CC(C4CN(C(=O)N5CC6(CC(c7nc(C8CC8)n[nH]7)C6)C5)C4)(C2)C3)cc1 [compound 786] | 8.10 |
| Cc1sc(CN2CC3(C2)CN(C(=O)N2CC4(CC(c5nc(C6CC6)n[nH]5)C4)C2)C3)nc1C(F)(F)F [compound 458] | 7.64 |
| O=C(N1CC2(CC(Cc3ccc4ncnn4c3)C2)C1)N1CC2(CC(c3nc(C4CC4)n[nH]3)C2)C1 [compound 645] | 8.18 |
| O=C(N1CC2(CC(c3nc(C4CC4)n[nH]3)C2)C1)N1CC2(CN(Cc3ccc(=O)[nH]c3)C2)C1 [compound 541] | 5.95 |
| Cc1cc([C@@H](C)C2CC3(C2)CN(C(=O)N2CC4(CC(c5nc(C6CC6)n[nH]5)C4)C2)C3)ncc1C(F)(F)F [compound 966] | 9.85 |
| CS(=O)(=O)c1ccc(CC2CC3(C2)CN(C(=O)N2CC4(CC(c5nnc(C6(O)CC6)[nH]5)C4)C2)C3)cc1 [compound 13] | 8.33 |
| O=C(N1CC2(CC(Cc3cc(C(F)(F)F)ncn3)C2)C1)N1CC2(CC(c3nc(C4CC4)n[nH]3)C2)C1 [compound 400] | 8.93 |
| O=C(N1CC(C23CC(Oc4cnc(C(F)(F)F)cn4)(C2)C3)C1)N1CC2(CC(c3nc(C4(O)CC4)n[nH]3)C2)C1 [compound 552] | 7.58 |
